The assay relates to hypoxia-inducible endogenous VEGF expression. As to the kind of experiment: Hypoxia-inducible endogenous VEGF expression ELISA in HeLa cells, dose-response (EC50, Table 3). The conditions noted are these: Homo sapiens, read-out: ELISA EC50 μM.

A value given as a limit tells only on which side of the number the result lay.

For the compound `COCCCNCCCCOc1ccc(C2c3[nH]c4ccc(Cl)cc4c3CCN2C(=O)Oc2ccc(F)cc2)cc1` (centres unmarked) [Compound 737], the EC50 (as a rule, the concentration at which the effect is half-maximal) lay within 0.008 to 0.04 µM.
With `O=C(Oc1ccc(F)cc1)N1CCc2c([nH]c3ccc(Cl)cc23)C1c1ccc(OCCCCN2CCOCC2)cc1` (centres unmarked) [Compound 738], the EC50 is under 0.008 µM.
For `O=C(Oc1ccc(F)cc1)N1CCc2c([nH]c3ccc(Cl)cc23)C1c1ccc(OCCCCN2CCCCC2)cc1` (centres unmarked) [Compound 739], the EC50 was under 0.008 µM.
Consider `CN1CCN(CCCCOc2ccc(C3c4[nH]c5ccc(Cl)cc5c4CCN3C(=O)Oc3ccc(F)cc3)cc2)CC1` (centres unmarked) [Compound 740], for which the EC50 lay within 0.04 to 0.2 µM.
Take `O=C(Oc1ccc(F)cc1)N1CCc2c([nH]c3ccc(Cl)cc23)C1c1ccc(OCCCCNCCCn2ccnc2)cc1` (centres unmarked) [Compound 741]: the EC50 was 0.04 to 0.2 µM.
With `O=C(Oc1ccc(F)cc1)N1CCc2c([nH]c3ccc(Cl)cc23)C1c1ccc(OCCCCCCNCCO)cc1` (centres unmarked) [Compound 772], the EC50 is under 0.008 µM.
With `O=C(Oc1ccc(F)cc1)N1CCc2c([nH]c3ccc(Cl)cc23)C1c1ccc(OCCCCCCN2CCCC2)cc1` (centres unmarked) [Compound 773], the EC50 was under 0.008 µM.
Regarding `CC(C)NCCCCCCOc1ccc(C2c3[nH]c4ccc(Cl)cc4c3CCN2C(=O)Oc2ccc(F)cc2)cc1` (centres unmarked) [Compound 774], the EC50 was in the range of 0.008 to 0.04 µM.
In the case of `COCCCNCCCCCCOc1ccc(C2c3[nH]c4ccc(Cl)cc4c3CCN2C(=O)Oc2ccc(F)cc2)cc1` (centres unmarked) [Compound 775], the EC50 is under 0.008 µM.
Under `O=C(Oc1ccc(F)cc1)N1CCc2c([nH]c3ccc(Cl)cc23)C1c1ccc(OCCCCCCN2CCOCC2)cc1` (centres unmarked) [Compound 776] stands under 0.008 µM; under `O=C(Oc1ccc(F)cc1)N1CCc2c([nH]c3ccc(Cl)cc23)C1c1ccc(OCCCCCCN2CCCCC2)cc1` (centres unmarked) [Compound 777], under 0.008 µM.
Turning to `CN1CCN(CCCCCCOc2ccc(C3c4[nH]c5ccc(Cl)cc5c4CCN3C(=O)Oc3ccc(F)cc3)cc2)CC1` (centres unmarked) [Compound 778], the EC50 was under 0.008 µM.
For `O=C(Oc1ccc(F)cc1)N1CCc2c([nH]c3ccc(Cl)cc23)C1c1ccc(OCCCCCCNCCCn2ccnc2)cc1` (centres unmarked) [Compound 779], the concentration giving a half-maximal response (EC50) is 0.04 to 0.2 µM.
As for `O=C(Oc1ccc(Cl)cc1)N1CCc2c([nH]c3ccc(Cl)cc23)C1c1ccc(OCCCCCCNCCO)cc1` (centres unmarked) [Compound 782], the EC50 is under 0.008 µM.
As for `O=C(Oc1ccc(Cl)cc1)N1CCc2c([nH]c3ccc(Cl)cc23)C1c1ccc(OCCCCCCN2CCCC2)cc1` (centres unmarked) [Compound 783], the EC50 is under 0.008 µM.
On to `CC(C)NCCCCCCOc1ccc(C2c3[nH]c4ccc(Cl)cc4c3CCN2C(=O)Oc2ccc(Cl)cc2)cc1` (centres unmarked) [Compound 784], for which the half-maximal effective concentration (EC50) is under 0.008 µM.
As to `COCCCNCCCCCCOc1ccc(C2c3[nH]c4ccc(Cl)cc4c3CCN2C(=O)Oc2ccc(Cl)cc2)cc1` (centres unmarked) [Compound 785], the EC50 was under 0.008 µM.
Regarding `O=C(Oc1ccc(Cl)cc1)N1CCc2c([nH]c3ccc(Cl)cc23)C1c1ccc(OCCCCCCN2CCOCC2)cc1` (centres unmarked) [Compound 786], the EC50 is under 0.008 µM.
Take `O=C(Oc1ccc(Cl)cc1)N1CCc2c([nH]c3ccc(Cl)cc23)C1c1ccc(OCCCCCCN2CCCCC2)cc1` (centres unmarked) [Compound 787]: the EC50 is under 0.008 µM.
Turning to `CN1CCN(CCCCCCOc2ccc(C3c4[nH]c5ccc(Cl)cc5c4CCN3C(=O)Oc3ccc(Cl)cc3)cc2)CC1` (centres unmarked) [Compound 788], the EC50 fell in the range of 0.008 to 0.04 µM.
With `O=C(Oc1ccc(Cl)cc1)N1CCc2c([nH]c3ccc(Cl)cc23)C1c1ccc(OCCCCCCNCCCn2ccnc2)cc1` (centres unmarked) [Compound 789], the half-maximal effective concentration (EC50) fell in the range of 0.04 to 0.2 µM.
On to `NCC(O)COc1ccc(C2c3[nH]c4ccc(Cl)cc4c3CCN2C(=O)Oc2ccc(Cl)cc2)cc1` (centres unmarked) [Compound 846], for which the half-maximal effective concentration (EC50) was 0.04 to 0.2 µM.
Regarding `CNCC(O)COc1ccc(C2c3[nH]c4ccc(Cl)cc4c3CCN2C(=O)Oc2ccc(Cl)cc2)cc1` (centres unmarked) [Compound 850], the EC50 fell in the range of 0.04 to 0.2 µM.
Turning to `O=C(Oc1ccc(Cl)cc1)N1CCc2c([nH]c3ccc(Cl)cc23)C1c1ccc(OCCCN2CCOCC2)cc1` (centres unmarked) [Compound 894], the EC50 is under 0.008 µM.
As for `CC(=O)N1CCN(CCCOc2ccc(C3c4[nH]c5ccc(Cl)cc5c4CCN3C(=O)Oc3ccc(Cl)cc3)cc2)CC1` (centres unmarked) [Compound 903], the EC50 is under 0.008 µM.
Consider `O=C(Oc1ccc(Cl)cc1)N1CCc2c([nH]c3ccc(Cl)cc23)C1c1ccc(OCC(O)CN2CCOCC2)cc1` (centres unmarked) [Compound 904], for which the EC50 was under 0.008 µM.
Under `COCCN(C)CCCOc1ccc(C2c3[nH]c4ccc(Cl)cc4c3CCN2C(=O)Oc2ccc(Cl)cc2)cc1` (centres unmarked) [Compound 908] stands under 0.008 µM; under `COCCN(CCOC)CC(O)COc1ccc(C2c3[nH]c4ccc(Cl)cc4c3CCN2C(=O)Oc2ccc(F)cc2)cc1` (centres unmarked) [Compound 913], under 0.008 µM.
Consider `COCCN(CCCOc1ccc(C2c3[nH]c4ccc(Cl)cc4c3CCN2C(=O)Oc2ccc(Cl)cc2)cc1)CCOC` (centres unmarked) [Compound 916], for which the EC50 is under 0.008 µM.
Regarding `COCCN(CCOC)CC(O)COc1ccc(C2c3[nH]c4ccc(Cl)cc4c3CCN2C(=O)Oc2ccc(Cl)cc2)cc1` (centres unmarked) [Compound 918], the EC50 is under 0.008 µM.
As for `O=C(Oc1ccc(Cl)cc1)N1CCc2c([nH]c3ccc(Cl)cc23)C1c1ccc(OCC(O)CN2CCSCC2)cc1` (centres unmarked) [Compound 923], the EC50 was under 0.008 µM.
With `O=C(Oc1ccc(F)cc1)N1CCc2c([nH]c3ccc(Cl)cc23)C1c1ccc(OCC(O)CN2CCSCC2)cc1` (centres unmarked) [Compound 925], the EC50 was under 0.008 µM.
On to `CN1CCCC(COc2ccc(C3c4[nH]c5ccc(Cl)cc5c4CCN3C(=O)Oc3ccc(F)cc3)cc2)C1` (centres unmarked) [Compound 932], for which the concentration giving a half-maximal response (EC50) is under 0.008 µM.
For the compound `O=C(Oc1ccc(Cl)cc1)N1CCc2c([nH]c3ccc(Cl)cc23)C1c1ccc(OCCCN2CCSCC2)cc1` (centres unmarked) [Compound 933], the concentration for a half-maximal effect (EC50) is under 0.008 µM.
On to `COCCN(C)CC(O)COc1ccc(C2c3[nH]c4ccc(Cl)cc4c3CCN2C(=O)Oc2ccc(F)cc2)cc1` (centres unmarked) [Compound 936], for which the concentration giving a half-maximal response (EC50) is under 0.008 µM.
For the compound `CCN(CC)CC(O)COc1ccc(C2c3[nH]c4ccc(Cl)cc4c3CCN2C(=O)Oc2ccc(Cl)cc2)cc1` (centres unmarked) [Compound 938], the EC50 was under 0.008 µM.
Under `O=C(Oc1ccc(Cl)cc1)N1CCc2c([nH]c3ccc(Cl)cc23)C1c1ccc(OCCCN2CCN(CCO)CC2)cc1` (centres unmarked) [Compound 942] stands 0.008 to 0.04 µM; under `CCN(CC)CCCOc1ccc(C2c3[nH]c4ccc(Cl)cc4c3CCN2C(=O)Oc2ccc(Cl)cc2)cc1` (centres unmarked) [Compound 946], 0.008 to 0.04 µM; under `Cc1ccc(OC(=O)N2CCc3c([nH]c4ccc(Cl)cc34)C2c2ccc(OCC3CCCN(C)C3)cc2)cc1` (centres unmarked) [Compound 951], 0.008 to 0.04 µM.
In the case of `CN1CCCC(COc2ccc(C3c4[nH]c5ccc(Cl)cc5c4CCN3C(=O)Oc3ccccc3)cc2)C1` (centres unmarked) [Compound 952], the concentration giving a half-maximal response (EC50) was 0.008 to 0.04 µM.
Next, `CC(C)NCCCOc1ccc(C2c3[nH]c4ccc(Cl)cc4c3CCN2C(=O)Oc2ccc(Cl)cc2)cc1` (centres unmarked) [Compound 953]: 0.008 to 0.04 µM; `O=C(Oc1ccc(Cl)cc1)N1CCc2c([nH]c3ccc(Cl)cc23)C1c1ccc(OCC(O)CN2CCN(CCO)CC2)cc1` (centres unmarked) [Compound 960]: 0.008 to 0.04 µM; `CN1CCN(CCCOc2ccc(C3c4[nH]c5ccc(Cl)cc5c4CCN3C(=O)Oc3ccc(Cl)cc3)cc2)CC1` (centres unmarked) [Compound 961]: 0.008 to 0.04 µM.
Under `CN1CCN(CC(O)COc2ccc(C3c4[nH]c5ccc(Cl)cc5c4CCN3C(=O)Oc3ccc(F)cc3)cc2)CC1` (centres unmarked) [Compound 963] stands 0.008 to 0.04 µM.
Turning to `COCCN(C)CC(O)COc1ccc(C2c3[nH]c4ccc(Cl)cc4c3CCN2C(=O)Oc2ccc(Cl)cc2)cc1` (centres unmarked) [Compound 964], the 50% effective concentration (EC50) was 0.008 to 0.04 µM.
As for `CN1CCCC(COc2ccc(C3c4[nH]c5ccc(Cl)cc5c4CCN3C(=O)Oc3ccc(Cl)cc3)cc2)C1` (centres unmarked) [Compound 966], the EC50 was in the range of 0.008 to 0.04 µM.
Turning to `CN1CCN(CC(O)COc2ccc(C3c4[nH]c5ccc(Cl)cc5c4CCN3C(=O)Oc3ccc(Cl)cc3)cc2)CC1` (centres unmarked) [Compound 970], the concentration giving a half-maximal response (EC50) was 0.008 to 0.04 µM.
In the case of `CN1CCCC(COc2ccc(C3c4[nH]c5ccc(Cl)cc5c4CCN3C(=O)Oc3ccccc3Cl)cc2)C1` (centres unmarked) [Compound 976], the EC50 fell in the range of 0.04 to 0.2 µM.
Under `CC(C)NCC(O)COc1ccc(C2c3[nH]c4ccc(Cl)cc4c3CCN2C(=O)Oc2ccc(Cl)cc2)cc1` (centres unmarked) [Compound 977] stands 0.04 to 0.2 µM.
`COc1ccc(OC(=O)N2CCc3c([nH]c4ccc(Cl)cc34)C2c2ccc(OCC3CCCN(C)C3)cc2)cc1` (centres unmarked) [Compound 981]: the EC50 was in the range of 0.04 to 0.2 µM.
On to `CC(=O)N1CCN(CCCOc2ccc(C3c4[nH]c5ccc(Cl)cc5c4CCN3C(=O)Oc3ccc(F)cc3)cc2)CC1` (centres unmarked) [Compound 988], for which the EC50 is under 0.008 µM.
Next, `O=C(Oc1ccc(F)cc1)N1CCc2c([nH]c3ccc(Cl)cc23)C1c1ccc(OCCCN2CCOCC2)cc1` (centres unmarked) [Compound 989]: under 0.008 µM.
`COCCN(CCCOc1ccc(C2c3[nH]c4ccc(Cl)cc4c3CCN2C(=O)Oc2ccc(F)cc2)cc1)CCOC` (centres unmarked) [Compound 990]: the half-maximal effective concentration (EC50) is under 0.008 µM.
`O=C(Oc1ccc(F)cc1)N1CCc2c([nH]c3ccc(Cl)cc23)C1c1ccc(OCCCN2CCSCC2)cc1` (centres unmarked) [Compound 991]: the EC50 was in the range of 0.04 to 0.2 µM.
Turning to `COCCN(C)CCCOc1ccc(C2c3[nH]c4ccc(Cl)cc4c3CCN2C(=O)Oc2ccc(F)cc2)cc1` (centres unmarked) [Compound 992], the EC50 was in the range of 0.04 to 0.2 µM.
For `CN1CCN(CCCOc2ccc(C3c4[nH]c5ccc(Cl)cc5c4CCN3C(=O)Oc3ccc(F)cc3)cc2)CC1` (centres unmarked) [Compound 993], the 50% effective concentration (EC50) is under 0.008 µM.
Take `Cc1ccc(OC(=O)N2CCc3c([nH]c4ccc(Cl)cc34)[C@@H]2c2ccc(OCCC(O)CN3CCOCC3)cc2)cc1` (some centres unmarked) [Compound 1302]: the EC50 lay in the range of 0.04 to 0.2 µM.
With `CN(C)CCN(C)CCCOc1ccc([C@H]2c3[nH]c4ccc(Cl)cc4c3CCN2C(=O)Oc2ccc(Cl)cc2)cc1` [Compound 1611], the concentration giving a half-maximal response (EC50) is under 0.008 µM.
Under `COc1ccc(C2c3[nH]c4ccc(Cl)cc4c3CCN2C(=O)Oc2ccc(Cl)cc2)cc1` (centres unmarked) [Compound #10] stands under 0.008 µM.

(Values after US20120202801A1, “METHODS FOR TREATING BREAST CANCER” (priority 2009, published 2012).)
